Assay results reported in patent US9260731B2 (RELIANCE INDUSTRIES LIMITED, priority 2012, dated 2016).
Like-named read-outs stand apart in the source and are kept apart here.

How the values were obtained:
[1] = system: solvent-tolerant mutant C. acetobutylicum MTCC 5587; assay: Rhodamine 6G accumulation on AT agar, solvent-tolerant mutant; assay type: cell-based, Clostridium acetobutylicum; details: 100 μg/ml in AT agar, 24 h, 37° C., anaerobic
Experimental: (§1) Cells of overnight culture of wild type and solvent-tolerant mutant C. acetobutylicum MTCC 5587 were spotted on AT agar with or without rhodamine 6G (100 μg/ml) and incubated at 37° C. in anaerobic chamber for 24 h. Accumulation of rhodamine 6G was monitored under UV light (Lazaroaie, 2009).

[2] = system: wild type C. acetobutylicum; assay: Rhodamine 6G accumulation on AT agar, wild type; assay type: cell-based, Clostridium acetobutylicum; details: 100 μg/ml in AT agar, 24 h, 37° C., anaerobic
Experimental: as §1

[3] = system: C. acetobutylicum ATCC 4259 (wild type strain)
Excerpt: (§2) The tolerance and growth profile of the mutant was monitored with respect to time.

[4] = system: C. acetobutylicum MTCC 5587 (mutant strain B90)
Experimental: Chemical mutagenesis was carried out using MNNG (1-methyl-3-nitro-1-nitrosoguanidine). Alternate thioglycolate (AT) media was inoculated with C. acetobutylicum ATCC 4259 from the stab culture. After 12 h growth at 37° C., the culture was harvested and centrifuged. The cell pellet was washed with 2 ml citrate buffer (pH 5.8) and 100 μl of MNNG (stock solution 100 mg/ml prepared in sterilized distilled water) was added to the cells, incubated at 30° C. for 70 min. The mutagenised cell mass was centrifuged and the supernatant discarded appropriately in biohazard containers. The cells were washed twice with AT broth and resuspended in 1 ml AT broth.
as §2

Compound: CCN=c1cc2oc3cc(NCC)c(C)cc3c(-c3ccccc3C(=O)OCC)c-2cc1C.Cl [rhodamine 6G]
- accumulation of rhodamine 6G intracellularly (colony colour under UV light) [1]: high accumulation
- accumulation of rhodamine 6G (colony colour under UV light) [2]: comparatively lower dye accumulation

Compound: n-butanol
- butanol tolerated in the medium, beyond which there was cessation of growth [3]: up to 1.5%
- growth in presence of butanol ([4]; 3.8% butanol): no growth
- growth in presence of butanol ([4]; 4% butanol): no growth
- growth in presence of butanol ([4]; at the highest tolerated levels of butanol (up to […] v/v)): extremely slow and feeble
- butanol tolerated in the AT medium ([4]; mutant strain, AT medium): up to 3.5 % (v/v)
